Patent US11478416B2, “Ingredients for use in personal care compositions” (Croda, Inc., priority 2016, dated 2022)
“Also recorded” adds a separate entry of the source.

Assay: Frizz control test, panel ranking of tresses at 75% RH
Conditions: from panel ranking
Method: The formulations H to M as set out in Table 4 were prepared. Each hair conditioner formulation was prepared by combining the Part A ingredients while mixing and heating to 75-80° C., and separately combining the Part B ingredients and heating to the same temperature. The Part A and Part B ingredients were then combined while mixing at temperature and allowed to cool to 40° C. Once at 40° C., the Part C ingredients were added and the pH adjusted to about 4.5±0.5 using lactic acid.
For each formulation H to M, 7 Brazilian curly hair tresses available from International Hair Importers Inc., NYC, were cut to 1.5 cm wide and 20 cm long.
The tresses were washed with a simple cleansing shampoo (SLES/Betaine shampoo) using a 1:10 w/w shampoo to hair ratio for 1 minute. The tresses were then rinsed with warm water for 1 minute or until free of foam. 3 g of the respective formulation was then massaged into the hair tresses for 1 minute. The treated tresses were left to sit for 20 minutes and then the formulations rinsed out of the hair for 45 seconds. Once rinsed, the tresses were blown dry using a blow dryer and round brush, and then flat-ironed using a ceramic iron at 400° F. for 5 passes. […]
The panelists were asked to rank the tresses from 1 (least frizz) to 6 (most frizz). The mode and average of the panelists' rankings were calculated for each to give the overall ranking.

For “Isostearic Acid—DETA Tertiary Amine [Example 3a]”, the “frizz control, conclusion in words” value was “resisted frizz the best; also recorded: aids in frizz control”.
